Patent publication US11612586B2, “Indole regulation of antigen presenting cells” (THE TEXAS A&M UNIVERSITY SYSTEM, priority 2016, dated 2023)
Entries after “also recorded” stand apart in the source; their conditions may differ.

How the values were obtained:
TNF = TNF production in DC2.4 cell line, intracellular staining, flow cytometry; format: cell-based, murine
Method: Intracellular staining was performed to assess TNF production.
FIG. 8 illustrates that indole synergizes with TGF-β to inhibit TNF production in DCs. Flow cytometric analysis was performed on DC2.4 cells treated with indole or DMF control for 24 hours in the presence or absence of TGF-β (10 ng/ml). […] Shaded gray areas represent unstimulated samples. Representative histograms from one of three independent experiments.
One important way that DCs shape local immune responses is through the production of cytokines. Cytokine production was addressed in indole-conditioned dendritic cells, first using the murine dendritic cell line, DC2.4. Cells pre-treated with physiologically relevant doses of indole produced less TNF upon stimulation with the bacterial surface component and TLR4 ligand, LPS. Production of TNF was reduced by 50% following treatment with 1 mM indole (FIG. 1). This response is biologically important as LPS serves as the prototypical endotoxin, present on the surface of virtually all gram-negative bacteria including gut-resident commensal strains.

Thy1.2+CD4+ T cells = experiment: In vivo T cell activation by conditioned, OVA-loaded BMDCs transferred to B6-Thy1.1 mice; design: species or system mouse; settings: mice receiving BMDCs conditioned with indole
Source text: FIGS. 17A-17C graphically illustrate that indole-conditioned DCs induce lower T cell activation overall but a greater proportion of Tregs in spleen compared to control. Naïve CD4+CD25− T cells from OT-II (Thy1.2) mice and OVA323-339-loaded BMDCs conditioned with indole, RA, or DMF were transferred to B6-Thy1.1 mice. After 7 days, tissues were harvested and stained for flow cytometric analysis. Data includes total expansion of Thy1.2+CD4+ T cells (FIG. 17A), percentage of Foxp3+CD4+ T cells of expanded T cells (FIG. 17B), and MFI of Foxp3+CD4+ T cells of expanded T cells (FIG. 17C). n=4 mice/group.
To address the functionality of indole DC-induced Tregs, an in vivo T cell activation system was employed. The pan T cell surface antigen, Thy1, has congenic alleles, Thy1.1 and Thy1.2, which can be used to differentiate donor and recipient T cells. Naïve CD4+CD25− T cells were purified from OT-II (Thy1.2) mice, then transferred them to recipient Thy1.1 mice. Indole-treated, OVA323-339 peptide-loaded BMDCs (Thy1.2) was subsequently transferred to the same recipient Thy1.1 mice. After five days, the recipient mice were sacrificed to assess activation of the transferred naïve T cells, which could only be activated by the transferred, peptide-loaded DCs and are identifiable by the Thy1.2 T cell surface antigen. Cellular populations from the spleen, mesenteric lymph nodes, and pooled distal lymph nodes (axial and inguinal), were examined limiting the analysis to CD4+ T cells bearing the Thy1.2 allele (donor-derived). Importantly, the DCs transferred without OVA peptide loading (negative control) induced virtually undetectable T cell activation. This confirms the specificity of the present model, ensuring that T cell activation in Thy1.2 T cells was solely due to interaction with our experimental BMDCs.
Naïve CD4+CD25− T cells from spleens and lymph nodes of OT-II mice were isolated by column purification as described above and resuspended in sterile Hanks Balanced Saline Solution (HBSS). […]

CCR9 = CCR9 induction on naïve T cells by conditioned DCs; format: cell-based, mouse
Method: FIG. 18 graphically illustrates that indole-conditioned DCs induce CCR9 on naïve T cells upon activation. Naïve CD4+CD25− T cells from OT-II mice were co-cultured with OVA323-339 peptide-loaded BMDCs for 72 hours in the presence of RA as indicated. BMDCs were previously treated with indole, RA, or DMF from day 3. Following 3 days of co-culture, surface staining was performed for flow cytometric analysis.
Based on the observation that indole induces gut homing markers on developing DCs, it was queried whether indole-conditioned DCs could also confer gut homing markers upon naïve CD4+ T cells. The antigen-specific T cell activation model was used to address this question, and a titration of RA was included as a positive control to induce CCR9. […] Just 10 nM of RA enabled indole-DC co-cultures to achieve over 50% of T cells expressing CCR9 which was similar to RA-DC positive controls, whereas DMF-DC co-cultures with the same concentration of RA added achieved only 10% of CCR9+ T cells.
Naïve CD4+CD25− T cells of spleen and lymph nodes from OT-II mice were isolated by negative selection via column purification using the Naïve CD4+ T Cell Isolation Kit (Miltenyi Biotec). Naïve CD4+ T cells (>96% pure) were labeled with Cell Proliferation Dye efluor450 (eBioscience) following manufacturer's instructions then co-cultured with OVA peptide-loaded BMDCs at a ratio of 2:1 for 72 hours in a 96-well round-bottom tissue culture plate. BMDCs were previously treated with indole or RA from day 3. On day 7, DCs were washed extensively prior to being loaded with OVA323-339 peptide (10 ug/ml) for 1 hour at 37° C. BMDCs were then washed three times and plated with naïve CD4+ T cells. RA or TGFβ were added to co-cultures as indicated. Following 3 days of culture, cells were stained with antibodies to CD4, CCR9, and LPAM-1 (α4β7). Intracellular staining for Foxp3 was performed using a Foxp3 staining kit (eBioscience). The remaining CD4+ helper T cell lineages Th1, Th2, and Th17 were identified by their cytokine production. […]

Compound: c1ccc2[nH]ccc2c1 [Indole, indole]
- reduction of TNF production (TNF; DC2.4, 1 mM indole pre-treatment, LPS stimulation): 50%
- inhibition of TNF production with concurrent TGF-β treatment (TNF; DC2.4, indole 24 hours with TGF-β (10 ng/ml), LPS 1 ug/ml 4 hours): marked synergistic effect
- Foxp3 mean fluorescence intensity of splenic Tregs (Thy1.2+CD4+ T cells): higher mean fluorescence intensity
- Tregs in the spleen of newly activated T cells compared to RA-DCs or DMF-DCs (Thy1.2+CD4+ T cells): two times more Tregs
- T cell expansion, less than controls (Thy1.2+CD4+ T cells; spleen, mesenteric and distal lymph nodes): more than 2 fold
- T cells expressing CCR9 (CCR9; co-culture with DCs conditioned with indole, 10 nM of RA added): over 50%
- induction of CCR9 on naïve T cells by conditioned BMDCs alone (CCR9; no exogenous RA in the co-culture): insufficient; also recorded: did not induce CCR9
